In brackets after ≈: the same amount, converted by molar mass.

The record followed here is patent publication US6756359B2, “C12 modified erythromycin macrolides and ketolides having antibacterial activity” (Chiron Corporation, priority 2001, dated 2004).

Test in all cases: Antibacterial activity in vitro, MIC by broth microdilution
A general note: In broth dilution the organism is exposed to a series of concentrations in liquid medium.

One assay concerns H. influenzae Hain_49247. The format is cell-based, Haemophilus influenzae. As to conditions: Table 3, Strain ID L: H. influenzae Hain_49247; unit assumed. In outline: (§1)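 Visible-growth inhibition defined the MIC, obtained by NCCLS broth microdilution at 35° C. over 18-24 hours with a final inoculum of 3×10^5–7×10^5 CFU/mL.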
Assay [1] has as its system S. pneumoniae Stpn_Mef 5654. The format is cell-based, Streptococcus pneumoniae. Particulars: Table 3, Strain ID J: S. pneumoniae Stpn_Mef 5654; unit assumed. The method, boiled down:
as §1

The subject of assay [2] is S. pneumoniae Stpn_Erm 6849. In kind it is cell-based, Streptococcus pneumoniae. As to conditions: Table 3, Strain ID H: S. pneumoniae Stpn_Erm 6849; unit assumed. In outline:
as §1

Assay [3] deals with S. pneumoniae Stpn_280-962 Pen S. The format is cell-based, Streptococcus pneumoniae. Particulars: Table 3, Strain ID G: S. pneumoniae Stpn_280-962 Pen S. The method, boiled down: as §1
The subject of assay [4] is S. pneumoniae Stpn_Erm S 4297. In kind it is cell-based, Streptococcus pneumoniae. As to conditions: Table 3, Strain ID I: S. pneumoniae Stpn_Erm S 4297. The method, boiled down:
as §1

Another assay relates to S. pneumoniae Stpn_49619. In kind it is cell-based, Streptococcus pneumoniae. As to conditions: Table 3, Strain ID E: S. pneumoniae Stpn_49619. The method, boiled down: as §1
The test system of assay [5] is S. pneumoniae Stpn_297-749 Pen R. In kind it is cell-based, Streptococcus pneumoniae. Particulars: Table 3, Strain ID F: S. pneumoniae Stpn_297-749 Pen R. In outline: as §1
Assay [6] deals with S. pneumoniae Stpn_Mef S 3427. The format is cell-based, Streptococcus pneumoniae. Particulars: Table 3, Strain ID K: S. pneumoniae Stpn_Mef S 3427. In outline:
as §1

Another assay deals with E. faecalis Enfa_29212. In kind it is cell-based. Particulars: Table 3, Strain ID C: E. faecalis Enfa_29212. The method, boiled down:
as §1

In the next assay the test system is E. coli Esco_25922. In kind it is cell-based. Particulars: Table 3, Strain ID M: E. coli Esco_25922; unit assumed. The method, boiled down: as §1
The test system of another assay is S. pyogenes Stpy_8668. In kind it is cell-based. As to conditions: Table 3, Strain ID D: S. pyogenes Stpy_8668. The method, boiled down:
as §1

Assay [7] concerns S. epidermidis Step_f50654 Pen S. The format is cell-based. Particulars: Table 3, Strain ID B: S. epidermidis Step_f50654 Pen S; unit assumed. In outline:
as §1

Assay [8] relates to S. epidermidis Step_14990. The format is cell-based. As to conditions: Table 3, Strain ID A: S. epidermidis Step_14990; unit assumed. The method, boiled down: as §1

For the compound `CC[C@H]1OC(=O)[C@H](C)C(=O)[C@H](C)[C@@H](O[C@@H]2O[C@H](C)C[C@H](N(C)C)[C@H]2O)[C@@](C)(OC)C[C@@H](C)C(=O)[C@H](C)[C@H]2NC(=O)O[C@@H]21` [Compound 4266], the MIC is 25 µg/mL (≈ 41.8 µM) in the assay on H. influenzae Hain_49247; 0.2 µg/mL (≈ 0.334 µM) in assay [1]; above 50 µg/mL in [2]; “≦0.05” in assay [3]; above 50 µg/mL in assay [4] (unit assumed); 0.2 µg/mL (≈ 0.334 µM) in the assay on S. pneumoniae Stpn_49619 (unit assumed). The MIC result in assay [5] is “≦0.05”; in assay [6] (unit assumed), 0.1 µg/mL (≈ 0.167 µM); in the assay on E. faecalis Enfa_29212 (unit assumed) it was 1.56 µg/mL (≈ 2.61 µM); in the assay on E. coli Esco_25922, above 50 µg/mL; in the assay on S. pyogenes Stpy_8668 (unit assumed), 0.1 µg/mL (≈ 0.167 µM); in assay [7], 3.13 µg/mL (≈ 5.23 µM). This compound also yielded an MIC in assay [8] of 3.13 µg/mL (≈ 5.23 µM).

As for `CC[C@H]1OC(=O)[C@H](C)C(=O)[C@H](C)[C@@H](O[C@@H]2O[C@H](C)C[C@H](N(C)C)[C@H]2O)[C@@](C)(OC)C[C@@H](C)C(=O)[C@H](C)[C@@H]2[C@@H]1OC(=O)N2CCCCn1cnc(-c2ccccc2)c1` [Compound 4710], the MIC with H. influenzae Hain_49247 is 3.13 µg/mL (≈ 3.93 µM); in assay [1] it was 0.2 µg/mL (≈ 0.251 µM); in [2], 0.2 µg/mL (≈ 0.251 µM); in assay [3], “≦0.5”; in assay [4] it was “≦0.05”; against S. pneumoniae Stpn_49619 it was “≦0.5”. For the same compound, the MIC result in [5] was “≦0.5”; in [6], “≦0.5”; against E. faecalis Enfa_29212 it was “≦0.05”; against E. coli Esco_25922 it was 50 µg/mL (≈ 62.7 µM); against S. pyogenes Stpy_8668, “≦0.5”; in [7] it was 0.2 µg/mL (≈ 0.251 µM). In addition, the MIC in assay [8] stood at 0.1 µg/mL (≈ 0.125 µM).

As for `CC[C@H]1OC(=O)[C@H](C)C(=O)[C@H](C)[C@@H](O[C@@H]2O[C@H](C)C[C@H](N(C)C)[C@H]2O)[C@@](C)(OC)C[C@@H](C)C(=O)[C@H](C)[C@@H]2[C@@H]1OC(=O)N2CCCCc1ccnc2ccccc12` [Compound 4711], the MIC in the assay with H. influenzae Hain_49247 is 1.56 µg/mL (≈ 1.99 µM); in assay [1], 0.1 µg/mL (≈ 0.128 µM); in [2], 6.25 µg/mL (≈ 7.99 µM); in [3] it was “≦0.5”; in assay [4] (unit assumed), 0.2 µg/mL (≈ 0.256 µM); in the assay on S. pneumoniae Stpn_49619 it was “≦0.5”. Moreover, the MIC result is “≦0.5” in assay [5]; “≦0.5” in [6]; “≦0.05” in the assay with E. faecalis Enfa_29212; 50 µg/mL (≈ 63.9 µM) against E. coli Esco_25922; “≦0.5” in the assay on S. pyogenes Stpy_8668; 0.1 µg/mL (≈ 0.128 µM) in [7]. This compound gave an MIC in assay [8] of 0.1 µg/mL (≈ 0.128 µM).

In the case of `CC[C@H]1OC(=O)[C@H](C)C(=O)[C@H](C)[C@@H](O[C@@H]2O[C@H](C)C[C@H](N(C)C)[C@H]2O)[C@@](C)(OC)C[C@@H](C)C(=O)[C@H](C)[C@@H]2[C@@H]1OC(=O)N2CCCCn1cnc2ncccc21` [Compound 4713], the MIC in the assay with H. influenzae Hain_49247 was 3.13 µg/mL (≈ 4.05 µM); in [1], 3.13 µg/mL (≈ 4.05 µM); in assay [2] it was 0.78 µg/mL (≈ 1.01 µM); in assay [3] it was “≦0.5”; in assay [4] (unit assumed), 0.1 µg/mL (≈ 0.13 µM); against S. pneumoniae Stpn_49619, “≦0.5”. Moreover, the MIC entry in assay [5] was “≦0.5”; in assay [6] (unit assumed), 0.4 µg/mL (≈ 0.518 µM); in the assay on E. faecalis Enfa_29212 (unit assumed), 0.1 µg/mL (≈ 0.13 µM); against E. coli Esco_25922, 50 µg/mL (≈ 64.8 µM); against S. pyogenes Stpy_8668, “≦0.5”; in assay [7] it was 0.4 µg/mL (≈ 0.518 µM). In addition, the MIC in [8] is 0.4 µg/mL (≈ 0.518 µM).

For `CC[C@H]1OC(=O)[C@H](C)C(=O)[C@H](C)[C@@H](O[C@@H]2O[C@H](C)C[C@H](N(C)C)[C@H]2O)[C@@](C)(OC)C[C@@H](C)C(=O)[C@H](C)[C@@H]2[C@@H]1OC(=O)N2CCCn1cnc(-c2ccccc2)c1` [Compound 4714], the MIC with H. influenzae Hain_49247 is above 50 µg/mL; in assay [1] it was 0.4 µg/mL (≈ 0.511 µM); in assay [2] it was above 50 µg/mL; in [3] it was “≦0.5”; in [4] (unit assumed), 6.25 µg/mL (≈ 7.98 µM); in the assay on S. pneumoniae Stpn_49619 it was “≦0.5”. For the same compound, the MIC result in [5] is “≦0.5”; in assay [6] (unit assumed), 0.1 µg/mL (≈ 0.128 µM); against E. faecalis Enfa_29212 (unit assumed), 0.4 µg/mL (≈ 0.511 µM); against E. coli Esco_25922 it was above 50 µg/mL; with S. pyogenes Stpy_8668 (unit assumed), 0.1 µg/mL (≈ 0.128 µM); in assay [7], 6.25 µg/mL (≈ 7.98 µM). In assay [8], this compound had an MIC of 6.25 µg/mL (≈ 7.98 µM).

As to `CC[C@H]1OC(=O)[C@H](C)C(=O)[C@H](C)[C@@H](O[C@@H]2O[C@H](C)C[C@H](N(C)C)[C@H]2O)[C@@](C)(OC)C[C@@H](C)C(=O)[C@H](C)[C@@H]2[C@@H]1OC(=O)N2CCCn1cnc2cccnc21` [Compound 4716], the MIC with H. influenzae Hain_49247 is 25 µg/mL (≈ 33 µM); in [1], 0.78 µg/mL (≈ 1.03 µM); in [2], above 50 µg/mL; in assay [3] it was “≦0.5”; in [4] (unit assumed), 25 µg/mL (≈ 33 µM); against S. pneumoniae Stpn_49619 it was “≦0.5”. Moreover, the MIC entry in assay [5] is “≦0.5”; in assay [6] (unit assumed) it was 0.4 µg/mL (≈ 0.528 µM); in the assay with E. faecalis Enfa_29212 (unit assumed) it was 0.78 µg/mL (≈ 1.03 µM); against E. coli Esco_25922, above 50 µg/mL; with S. pyogenes Stpy_8668 (unit assumed), 0.1 µg/mL (≈ 0.132 µM); in [7], 12.5 µg/mL (≈ 16.5 µM). In addition, the MIC in [8] is 6.25 µg/mL (≈ 8.25 µM).

As to `CC[C@H]1OC(=O)[C@H](C)C(=O)[C@H](C)[C@@H](O[C@@H]2O[C@H](C)C[C@H](N(C)C)[C@H]2O)[C@@](C)(OC)C[C@@H](C)C(=O)[C@H](C)[C@@H]2[C@@H]1OC(=O)N2CCCCn1ccc2ccccc21` [Compound 4717], the MIC in the assay with H. influenzae Hain_49247 was 6.25 µg/mL (≈ 8.12 µM); in assay [1], 0.2 µg/mL (≈ 0.26 µM); in [2] it was 6.25 µg/mL (≈ 8.12 µM); in assay [3], “≦0.5”; in assay [4] (unit assumed), 0.4 µg/mL (≈ 0.519 µM); with S. pneumoniae Stpn_49619, “≦0.5”. The MIC entry in assay [5] was “≦0.5”; in assay [6], “≦0.05”; with E. faecalis Enfa_29212 (unit assumed), 0.1 µg/mL (≈ 0.13 µM); against E. coli Esco_25922, above 50 µg/mL; in the assay on S. pyogenes Stpy_8668, “≦0.5”; in [7], 0.4 µg/mL (≈ 0.519 µM). Besides, the MIC in assay [8] was 0.2 µg/mL (≈ 0.26 µM).

On to `CC[C@H]1OC(=O)[C@H](C)C(=O)[C@H](C)[C@@H](O[C@@H]2O[C@H](C)C[C@H](N(C)C)[C@H]2O)[C@@](C)(OC)C[C@@H](C)C(=O)[C@H](C)[C@@H]2[C@@H]1OC(=O)N2CCCCc1ccc2ccccc2n1` [Compound 5960], for which the MIC with H. influenzae Hain_49247 is 3.13 µg/mL (≈ 4 µM); in assay [1] it was 0.2 µg/mL (≈ 0.256 µM); in [2], 25 µg/mL (≈ 32 µM); in [3], “≦0.05”; in [4] (unit assumed), 0.1 µg/mL (≈ 0.128 µM); with S. pneumoniae Stpn_49619, “≦0.05”. Also, the MIC entry is “≦0.05” in assay [5]; “≦0.05” in assay [6]; “≦0.05” in the assay with E. faecalis Enfa_29212; 25 µg/mL (≈ 32 µM) with E. coli Esco_25922; “≦0.05” in the assay on S. pyogenes Stpy_8668; 0.2 µg/mL (≈ 0.256 µM) in assay [7]. The compound also returned an MIC in assay [8] of 0.2 µg/mL (≈ 0.256 µM).

Consider `CC[C@H]1OC(=O)[C@H](C)C(=O)[C@H](C)[C@@H](O[C@@H]2O[C@H](C)C[C@H](N(C)C)[C@H]2O)[C@@](C)(OC)C[C@@H](C)C(=O)[C@H](C)[C@@H]2[C@@H]1OC(=O)N2CCCCc1ccnc2ccccc12` [Compound 6220], for which the MIC was 1.56 µg/mL (≈ 1.99 µM) in the assay on H. influenzae Hain_49247; 0.4 µg/mL (≈ 0.512 µM) in assay [1]; 3.13 µg/mL (≈ 4 µM) in assay [2]; “≦0.05” in assay [3]; 0.1 µg/mL (≈ 0.128 µM) in assay [4] (unit assumed); “≦0.05” in the assay with S. pneumoniae Stpn_49619. Also, the MIC entry is “≦0.05” in [5]; “≦0.5” in assay [6]; “≦0.05” with E. faecalis Enfa_29212; 6.25 µg/mL (≈ 7.99 µM) against E. coli Esco_25922; “≦0.05” in the assay with S. pyogenes Stpy_8668; 0.1 µg/mL (≈ 0.128 µM) in assay [7]. Moreover, the MIC in assay [8] was 0.1 µg/mL (≈ 0.128 µM).
